# Measured values from patent publication US20240025884A1 (Dong-A ST Co., Ltd., priority 2022, published 2024).
# Biological target: GCN2 (Homo sapiens (Human), UniProt Q9P2K8)
# Experiment: GCN2 Biochemical Assay (TR-FRET, GFP-eIF2S1 substrate phosphorylation)
# Conditions: read-out: IC50 (GCN2 Inhibitory Activity)
# In short: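 In-house GCN2 (1.6 nM 2× stock) phosphorylates GFP-eIF2S1 (50 nM 2× stock) with ATP (0.2 mM 2× stock) and tRNA, pH 7.5, 70 min at room temperature; 10-point 3.16-fold compound series. TR-FRET detection with Tb-anti-phospho antibody, 2–3 h, Ex 340/Em 490/520 nm; artifact plate spiked with phospho-substrate.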
# Sequence of GCN2 (Q9P2K8 whole entry): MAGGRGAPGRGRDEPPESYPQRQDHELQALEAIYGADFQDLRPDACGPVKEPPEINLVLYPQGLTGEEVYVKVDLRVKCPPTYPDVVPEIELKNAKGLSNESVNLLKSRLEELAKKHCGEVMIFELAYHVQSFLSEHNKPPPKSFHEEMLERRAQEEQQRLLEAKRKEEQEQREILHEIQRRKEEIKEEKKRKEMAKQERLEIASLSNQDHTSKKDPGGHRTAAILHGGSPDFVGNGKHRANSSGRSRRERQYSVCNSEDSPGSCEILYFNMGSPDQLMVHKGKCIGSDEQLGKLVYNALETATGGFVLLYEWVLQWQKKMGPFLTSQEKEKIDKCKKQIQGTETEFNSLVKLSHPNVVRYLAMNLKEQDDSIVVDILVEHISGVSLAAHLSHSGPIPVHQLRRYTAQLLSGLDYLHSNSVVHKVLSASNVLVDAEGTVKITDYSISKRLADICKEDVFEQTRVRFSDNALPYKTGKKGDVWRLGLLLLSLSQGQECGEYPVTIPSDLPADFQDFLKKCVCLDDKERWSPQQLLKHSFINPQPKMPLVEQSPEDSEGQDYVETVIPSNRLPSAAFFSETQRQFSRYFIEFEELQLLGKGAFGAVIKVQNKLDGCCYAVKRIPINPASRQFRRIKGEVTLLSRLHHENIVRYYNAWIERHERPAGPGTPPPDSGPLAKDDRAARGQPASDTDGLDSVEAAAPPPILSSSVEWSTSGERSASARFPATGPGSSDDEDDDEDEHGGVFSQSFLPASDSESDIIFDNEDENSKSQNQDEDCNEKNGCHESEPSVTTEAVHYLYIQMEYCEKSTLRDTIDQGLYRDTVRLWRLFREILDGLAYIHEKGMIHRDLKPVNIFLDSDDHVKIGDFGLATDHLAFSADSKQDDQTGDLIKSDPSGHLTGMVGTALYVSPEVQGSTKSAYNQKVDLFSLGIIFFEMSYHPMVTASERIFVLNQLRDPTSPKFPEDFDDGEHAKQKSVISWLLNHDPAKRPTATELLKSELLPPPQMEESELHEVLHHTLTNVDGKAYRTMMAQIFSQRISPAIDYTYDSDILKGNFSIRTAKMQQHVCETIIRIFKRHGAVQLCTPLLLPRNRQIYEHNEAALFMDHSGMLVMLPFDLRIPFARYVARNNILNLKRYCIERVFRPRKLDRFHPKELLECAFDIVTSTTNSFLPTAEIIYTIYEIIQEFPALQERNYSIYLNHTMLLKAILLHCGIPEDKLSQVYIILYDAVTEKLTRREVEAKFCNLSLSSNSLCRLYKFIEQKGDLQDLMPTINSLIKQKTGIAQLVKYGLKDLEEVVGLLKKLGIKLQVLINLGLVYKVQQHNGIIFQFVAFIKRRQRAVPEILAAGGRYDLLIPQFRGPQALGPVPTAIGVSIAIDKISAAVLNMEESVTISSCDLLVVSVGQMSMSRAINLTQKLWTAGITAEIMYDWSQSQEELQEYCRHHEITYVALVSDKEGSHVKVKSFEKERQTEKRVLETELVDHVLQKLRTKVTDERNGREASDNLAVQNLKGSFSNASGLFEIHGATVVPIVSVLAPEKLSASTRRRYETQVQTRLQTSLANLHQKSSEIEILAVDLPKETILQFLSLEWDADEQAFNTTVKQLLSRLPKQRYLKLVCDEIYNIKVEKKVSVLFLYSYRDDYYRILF
row,IC50 [nM],SMILES
1,10 to 100,"Cc1cnc(Nc2cc(C)n(C)n2)nc1-c1c[nH]c2c(NC(=O)CN3CC[C@H](Oc4cncc(NCCO)n4)C3)cccc12 [Example 246, (S)-N-(3-(2-((1,5-dimethyl-1H-pyrazol-3-yl)amino)-5-methylpyrimidin-4-yl)-1H-indol-7-yl)-2-(3-((6-((2-hydroxyethyl)amino)pyrazin-2-yl)oxy)pyrrolidin-1-yl)acetamide]"
2,< 10,"Cc1cnc(Nc2cc(C)n(C)n2)nc1-c1c[nH]c2c(NC(=O)CN3CC[C@H](Oc4cncc(NCCN(C)C)n4)C3)cccc12 [Example 247, (S)-N-(3-(2-((1,5-dimethyl-1H-pyrazol-3-yl)amino)-5-methylpyrimidin-4-yl)-1H-indol-7-yl)-2-(3-((6-((2-(dimethylamino)ethyl)amino)pyrazin-2-yl)oxy)pyrrolidin-1-yl)acetamide]"
3,10 to 100,"Cc1cnc(Nc2cc(C)n(C)n2)nc1-c1c[nH]c2c(NC(=O)CN3CC[C@H](Oc4cc(-c5ccccc5)ncn4)C3)cccc12 [Example 248, (S)-N-(3-(2-((1,5-dimethyl-1H-pyrazol-3-yl)amino)-5-methylpyrimidin-4-yl)-1H-indol-7-yl)-2-(3-((6-phenylpyrimidin-4-yl)oxy)pyrrolidin-1-yl)acetamide]"
4,< 10,"Cc1cnc(Nc2cc(C)n(C)n2)nc1-c1c[nH]c2c(NC(=O)CN3CC[C@H](Oc4cc(-c5cnn(C)c5)ncn4)C3)cccc12 [Example 249, (S)-N-(3-(2-((1,5-dimethyl-1H-pyrazol-3-yl)amino)-5-methylpyrimidin-4-yl)-1H-indol-7-yl)-2-(3-((6-(1-methyl-1H-pyrazol-4-yl)pyrimidin-4-yl)oxy)pyrrolidin-1-yl)acetamide]"
5,100 to 1000,Cc1cnc(Nc2cc(C)n(C)n2)nc1-c1c[nH]c2c(NC(=O)CN3CC[C@H](Oc4cc(C5=CCC(C)(C)CC5)ncn4)C3)cccc12 [Example 250]
6,10 to 100,"Cc1cnc(Nc2cc(C)n(C)n2)nc1-c1c[nH]c2c(NC(=O)CN3CC[C@H](Oc4cc(C5=CCOCC5)ncn4)C3)cccc12 [Example 251, (S)-2-(3-((6-(3,6-dihydro-2H-pyran-4-yl)pyrimidin-4-yl)oxy)pyrrolidin-1-yl)-N-(3-(2-((1,5-dimethyl-1H-pyrazol-3-yl)amino)-5-methylpyrimidin-4-yl)-1H-indol-7-yl)acetamide]"
7,10 to 100,"Cc1cnc(Nc2cc(C)n(C)n2)nc1-c1c[nH]c2c(NC(=O)CN3CC[C@H](Oc4nccc(C5=CCC(C)(C)CC5)n4)C3)cccc12 [Example 252, (S)-N-(3-(2-((1,5-dimethyl-1H-pyrazol-3-yl)amino)-5-methylpyrimidin-4-yl)-1H-indol-7-yl)-2-(3-((4-(4,4-dimethylcyclohex-1-en-1-yl)pyrimidin-2-yl)oxy)pyrrolidin-1-yl)acetamide]"
8,10 to 100,"Cc1cnc(Nc2cc(C)n(C)n2)nc1-c1c[nH]c2c(NC(=O)CN3CC[C@H](Oc4nccc(C5=CCOCC5)n4)C3)cccc12 [Example 253, (S)-2-(3-((4-(3,6-dihydro-2H-pyran-4-yl)pyrimidin-2-yl)oxy)pyrrolidin-1-yl)-N-(3-(2-((1,5-dimethyl-1H-pyrazol-3-yl)amino)-5-methylpyrimidin-4-yl)-1H-indol-7-yl)acetamide]"
9,10 to 100,"Cc1cnc(Nc2cc(C)n(C)n2)nc1-c1c[nH]c2c(NC(=O)CN3CC[C@H](Oc4nccc(-c5ccccc5)n4)C3)cccc12 [Example 254, (S)-N-(3-(2-((1,5-dimethyl-1H-pyrazol-3-yl)amino)-5-methylpyrimidin-4-yl)-1H-indol-7-yl)-2-(3-((4-phenylpyrimidin-2-yl)oxy)pyrrolidin-1-yl)acetamide]"
10,10 to 100,"Cc1cnc(Nc2cc(C)n(C)n2)nc1-c1c[nH]c2c(NC(=O)CN3CC[C@H](Oc4ncc(-c5cccnc5)cn4)C3)cccc12 [Example 255, (S)-N-(3-(2-((1,5-dimethyl-1H-pyrazol-3-yl)amino)-5-methylpyrimidin-4-yl)-1H-indol-7-yl)-2-(3-((5-(pyridin-3-yl)pyrimidin-2-yl)oxy)pyrrolidin-1-yl)acetamide]"
11,10 to 100,"Cc1cnc(Nc2cc(C)n(C)n2)nc1-c1c[nH]c2c(NC(=O)CN3CC[C@H](Oc4ncc(-c5ccncc5)cn4)C3)cccc12 [Example 256, (S)-N-(3-(2-((1,5-dimethyl-1H-pyrazol-3-yl)amino)-5-methylpyrimidin-4-yl)-1H-indol-7-yl)-2-(3-((5-(pyridin-4-yl)pyrimidin-2-yl)oxy)pyrrolidin-1-yl)acetamide]"
12,10 to 100,"Cc1cnc(Nc2cc(C)n(C)n2)nc1-c1c[nH]c2c(NC(=O)CN3CC[C@H](Oc4cnc(-c5cccnc5)nc4)C3)cccc12 [Example 258, (S)-N-(3-(2-((1,5-dimethyl-1H-pyrazol-3-yl)amino)-5-methylpyrimidin-4-yl)-1H-indol-7-yl)-2-(3-((2-(pyridin-3-yl)pyrimidin-5-yl)oxy)pyrrolidin-1-yl)acetamide]"
13,10 to 100,"Cc1cnc(Nc2cc(C)n(C)n2)nc1-c1c[nH]c2c(NC(=O)CN3CC[C@H](Oc4cnc(-c5ccncc5)nc4)C3)cccc12 [Example 259, (S)-N-(3-(2-((1,5-dimethyl-1H-pyrazol-3-yl)amino)-5-methylpyrimidin-4-yl)-1H-indol-7-yl)-2-(3-((2-(pyridin-4-yl)pyrimidin-5-yl)oxy)pyrrolidin-1-yl)acetamide]"
14,< 10,"Cc1cnc(Nc2cc(C)n(C)n2)nc1-c1c[nH]c2c(N3C(=O)c4ccccc4C3=O)cccc12 [Example 260, 2-(3-(2-((1,5-dimethyl-1H-pyrazol-3-yl)amino)-5-methylpyrimidin-4-yl)-1H-indol-7-yl)isoindoline-1,3-dione]"
15,< 10,"Cc1cnc(Nc2cc(C)n(C)n2)nc1-c1c[nH]c2c(N3C(=O)c4cccc(F)c4C3=O)cccc12 [Example 261, 2-(3-(2-((1,5-dimethyl-1H-pyrazol-3-yl)amino)-5-methylpyrimidin-4-yl)-1H-indol-7-yl)-4-fluoroisoindoline-1,3-dione]"
16,< 10,"Cc1cnc(Nc2cc(C)n(C)n2)nc1-c1c[nH]c2c(N3C(=O)c4cccc(Br)c4C3=O)cccc12 [Example 262, 4-bromo-2-(3-(2-((1,5-dimethyl-1H-pyrazol-3-yl)amino)-5-methylpyrimidin-4-yl)-1H-indol-7-yl)isoindoline-1,3-dione]"
17,< 10,"Cc1cnc(Nc2cc(C)n(C)n2)nc1-c1c[nH]c2c(N3C(=O)c4cccc(O)c4C3=O)cccc12 [Example 263, 2-(3-(2-((1,5-dimethyl-1H-pyrazol-3-yl)amino)-5-methylpyrimidin-4-yl)-1H-indol-7-yl)-4-hydroxyisoindoline-1,3-dione]"
18,< 10,"Cc1cnc(Nc2cc(C)n(C)n2)nc1-c1c[nH]c2c(N3C(=O)c4ccc([N+](=O)[O-])cc4C3=O)cccc12 [Example 264, 2-(3-(2-((1,5-dimethyl-1H-pyrazol-3-yl)amino)-5-methylpyrimidin-4-yl)-1H-indol-7-yl)-5-nitroisoindoline-1,3-dione]"
19,< 10,"Cc1cnc(Nc2cc(C)n(C)n2)nc1-c1c[nH]c2c(N3C(=O)c4cccnc4C3=O)cccc12 [Example 265, 6-(3-(2-((1,5-dimethyl-1H-pyrazol-3-yl)amino)-5-methylpyrimidin-4-yl)-1H-indol-7-yl)-5H-pyrrolo[3,4-b]pyridine-5,7(6H)-dione]"
20,< 10,"Cc1cnc(Nc2cc(C)n(C)n2)nc1-c1c[nH]c2c(N3Cc4c(Br)cccc4C3=O)cccc12 [Example 266, 4-bromo-2-(3-(2-((1,5-dimethyl-1H-pyrazol-3-yl)amino)-5-methylpyrimidin-4-yl)-1H-indol-7-yl)isoindolin-1-one]"
21,10 to 100,"Cc1cnc(Nc2cc(C)n(C)n2)nc1-c1c[nH]c2c(N3Cc4ccccc4C3=O)cccc12 [Example 267, 2-(3-(2-((1,5-dimethyl-1H-pyrazol-3-yl)amino)-5-methylpyrimidin-4-yl)-1H-indol-7-yl)isoindolin-1-one]"
22,< 10,"Cc1cnc(Nc2cc(C)n(C)n2)nc1-c1c[nH]c2c(N3Cc4ccc([N+](=O)[O-])cc4C3=O)cccc12 [Example 268, 2-(3-(2-((1,5-dimethyl-1H-pyrazol-3-yl)amino)-5-methylpyrimidin-4-yl)-1H-indol-7-yl)-6-nitroisoindolin-1-one]"
23,< 10,"Cc1cnc(Nc2cc(C)n(C)n2)nc1-c1c[nH]c2c(N3Cc4ccc(N)cc4C3=O)cccc12 [Example 269, 6-amino-2-(3-(2-((1,5-dimethyl-1H-pyrazol-3-yl)amino)-5-methylpyrimidin-4-yl)-1H-indol-7-yl)isoindolin-1-one]"
24,< 10,"Cc1cnc(Nc2cc(C)n(C)n2)nc1-c1c[nH]c2c(N3Cc4cc(Br)ccc4C3=O)cccc12 [Example 270, 5-bromo-2-(3-(2-((1,5-dimethyl-1H-pyrazol-3-yl)amino)-5-methylpyrimidin-4-yl)-1H-indol-7-yl)isoindolin-1-one]"
25,< 10,"Cc1cnc(Nc2cc(C)n(C)n2)nc1-c1c[nH]c2c(N3Cc4c(cccc4[N+](=O)[O-])C3=O)cccc12 [Example 271, 2-(3-(2-((1,5-dimethyl-1H-pyrazol-3-yl)amino)-5-methylpyrimidin-4-yl)-1H-indol-7-yl)-4-nitroisoindolin-1-one]"
26,< 10,"Cc1cnc(Nc2cc(C)n(C)n2)nc1-c1c[nH]c2c(N3Cc4c(N)cccc4C3=O)cccc12 [Example 272, 4-amino-2-(3-(2-((1,5-dimethyl-1H-pyrazol-3-yl)amino)-5-methylpyrimidin-4-yl)-1H-indol-7-yl)isoindolin-1-one]"
27,< 10,"Cc1cnc(Nc2cc(C)n(C)n2)nc1-c1c[nH]c2c(N3Cc4cccc(Cl)c4C3=O)cccc12 [Example 273, 7-chloro-2-(3-(2-((1,5-dimethyl-1H-pyrazol-3-yl)amino)-5-methylpyrimidin-4-yl)-1H-indol-7-yl)isoindolin-1-one]"
28,< 10,"Cc1cnc(Nc2cc(C)n(C)n2)nc1-c1c[nH]c2c(N3Cc4cccc([N+](=O)[O-])c4C3=O)cccc12 [Example 274, 2-(3-(2-((1,5-dimethyl-1H-pyrazol-3-yl)amino)-5-methylpyrimidin-4-yl)-1H-indol-7-yl)-7-nitroisoindolin-1-one]"
